According to US9616129B2, “Compositions and methods for potentiating immune response, enhancing immunotherapy, and increasing vaccine potency” (Nitor Therapeutics, priority 2013, dated 2017):

How the values were obtained:
Type in all cases: cell-based
[1] = biological target: T1, human TLR3 (Homo sapiens, UniProt O15455); experiment: TLR ligand screening, NF-κB SEAP reporter in HEK293 cells expressing TLR3; settings: one concentration: NTR001 10 uM, Inosine 100 uM; FIG. 2
T1 construct: expressed in transfected cells; host or cells: HEK293
T1 sequence (O15455 24-904): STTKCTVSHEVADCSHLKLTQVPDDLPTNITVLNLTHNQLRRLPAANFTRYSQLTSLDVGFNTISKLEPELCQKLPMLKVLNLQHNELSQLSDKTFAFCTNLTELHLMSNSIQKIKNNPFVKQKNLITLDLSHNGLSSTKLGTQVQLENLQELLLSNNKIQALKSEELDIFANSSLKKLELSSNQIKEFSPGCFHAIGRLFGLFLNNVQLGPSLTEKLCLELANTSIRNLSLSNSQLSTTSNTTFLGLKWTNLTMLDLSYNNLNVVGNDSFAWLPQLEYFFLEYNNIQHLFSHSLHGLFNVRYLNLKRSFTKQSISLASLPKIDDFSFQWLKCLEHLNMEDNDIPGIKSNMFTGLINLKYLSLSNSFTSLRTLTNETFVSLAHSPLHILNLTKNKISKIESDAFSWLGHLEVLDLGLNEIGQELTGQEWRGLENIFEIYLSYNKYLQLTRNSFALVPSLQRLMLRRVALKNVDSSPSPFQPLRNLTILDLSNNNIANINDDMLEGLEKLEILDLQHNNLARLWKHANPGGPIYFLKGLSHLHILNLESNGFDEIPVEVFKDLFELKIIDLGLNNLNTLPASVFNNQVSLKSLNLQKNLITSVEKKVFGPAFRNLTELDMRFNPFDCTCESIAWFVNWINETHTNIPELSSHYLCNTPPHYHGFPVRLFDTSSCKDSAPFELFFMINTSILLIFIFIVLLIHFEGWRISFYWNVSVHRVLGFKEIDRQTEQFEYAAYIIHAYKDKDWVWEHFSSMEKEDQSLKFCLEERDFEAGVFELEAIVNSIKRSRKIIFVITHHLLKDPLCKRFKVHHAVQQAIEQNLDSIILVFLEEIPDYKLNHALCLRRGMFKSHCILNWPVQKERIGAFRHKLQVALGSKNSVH
Experimental: (§1) TLR stimulation is tested by assessing NF-κB activation in HEK293 cells expressing a given TLR. The Secreted Embryonic Alkaline Phosphatase (SEAP) reporter is under the control of a promoter inducible by the transcription factor NF-κB. This reporter gene allows the monitoring of signaling through the TLR, based on the activation of NF-κB. The compounds are evaluated at one concentration and compared to control ligands. This step is performed in triplicate.

[2] = biological target: T2, human TLR8 (Homo sapiens, UniProt Q9NR97); experiment: TLR ligand screening, NF-κB SEAP reporter in HEK293 cells expressing TLR8; settings: one concentration: NTR001 10 uM, Inosine 100 uM; FIG. 2
T2 construct: expressed in transfected cells; host or cells: HEK293
T2 sequence (Q9NR97 27-1041): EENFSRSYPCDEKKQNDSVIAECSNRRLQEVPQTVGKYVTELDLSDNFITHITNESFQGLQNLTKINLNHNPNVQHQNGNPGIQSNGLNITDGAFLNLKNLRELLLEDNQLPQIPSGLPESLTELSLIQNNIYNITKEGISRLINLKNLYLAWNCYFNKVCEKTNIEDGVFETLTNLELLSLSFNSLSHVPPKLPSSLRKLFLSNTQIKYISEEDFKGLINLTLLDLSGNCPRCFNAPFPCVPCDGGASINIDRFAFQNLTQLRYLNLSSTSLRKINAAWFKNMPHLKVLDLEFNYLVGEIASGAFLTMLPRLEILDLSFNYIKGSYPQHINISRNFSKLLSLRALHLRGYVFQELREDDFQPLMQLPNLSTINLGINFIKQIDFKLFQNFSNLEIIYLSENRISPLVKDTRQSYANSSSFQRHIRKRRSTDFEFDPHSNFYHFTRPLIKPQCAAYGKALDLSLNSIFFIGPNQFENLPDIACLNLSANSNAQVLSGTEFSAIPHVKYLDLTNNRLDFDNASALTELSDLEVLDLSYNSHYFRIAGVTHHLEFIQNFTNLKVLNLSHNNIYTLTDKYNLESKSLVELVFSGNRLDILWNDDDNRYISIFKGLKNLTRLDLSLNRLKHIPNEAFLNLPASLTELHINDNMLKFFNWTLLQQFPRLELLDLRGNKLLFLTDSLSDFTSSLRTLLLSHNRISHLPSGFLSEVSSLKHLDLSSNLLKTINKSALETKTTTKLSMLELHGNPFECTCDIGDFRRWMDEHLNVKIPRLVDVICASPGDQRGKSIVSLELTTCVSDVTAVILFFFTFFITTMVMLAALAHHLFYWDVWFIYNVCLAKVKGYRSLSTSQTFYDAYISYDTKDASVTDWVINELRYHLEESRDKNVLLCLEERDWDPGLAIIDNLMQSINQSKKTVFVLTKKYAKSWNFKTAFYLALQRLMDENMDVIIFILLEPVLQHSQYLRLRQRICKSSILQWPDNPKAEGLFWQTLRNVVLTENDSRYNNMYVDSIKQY
Experimental: as §1

[3] = biological target: T3, human TLR2 (Homo sapiens, UniProt O60603); experiment: TLR ligand screening, NF-κB SEAP reporter in HEK293 cells expressing TLR2; settings: one concentration: Guanosine 100 uM, NTR001 10 uM, Inosine 100 uM; FIG. 2
T3 construct: expressed in transfected cells; host or cells: HEK293
Experimental: as §1

[4] = biological target: T4, human TLR5 (Homo sapiens, UniProt O60602); experiment: TLR ligand screening, NF-κB SEAP reporter in HEK293 cells expressing TLR5; settings: one concentration: NTR001 10 uM, Inosine 100 uM; FIG. 2
T4 construct: expressed in transfected cells; host or cells: HEK293
Experimental: as §1

T3 sequence (O60603 21-784): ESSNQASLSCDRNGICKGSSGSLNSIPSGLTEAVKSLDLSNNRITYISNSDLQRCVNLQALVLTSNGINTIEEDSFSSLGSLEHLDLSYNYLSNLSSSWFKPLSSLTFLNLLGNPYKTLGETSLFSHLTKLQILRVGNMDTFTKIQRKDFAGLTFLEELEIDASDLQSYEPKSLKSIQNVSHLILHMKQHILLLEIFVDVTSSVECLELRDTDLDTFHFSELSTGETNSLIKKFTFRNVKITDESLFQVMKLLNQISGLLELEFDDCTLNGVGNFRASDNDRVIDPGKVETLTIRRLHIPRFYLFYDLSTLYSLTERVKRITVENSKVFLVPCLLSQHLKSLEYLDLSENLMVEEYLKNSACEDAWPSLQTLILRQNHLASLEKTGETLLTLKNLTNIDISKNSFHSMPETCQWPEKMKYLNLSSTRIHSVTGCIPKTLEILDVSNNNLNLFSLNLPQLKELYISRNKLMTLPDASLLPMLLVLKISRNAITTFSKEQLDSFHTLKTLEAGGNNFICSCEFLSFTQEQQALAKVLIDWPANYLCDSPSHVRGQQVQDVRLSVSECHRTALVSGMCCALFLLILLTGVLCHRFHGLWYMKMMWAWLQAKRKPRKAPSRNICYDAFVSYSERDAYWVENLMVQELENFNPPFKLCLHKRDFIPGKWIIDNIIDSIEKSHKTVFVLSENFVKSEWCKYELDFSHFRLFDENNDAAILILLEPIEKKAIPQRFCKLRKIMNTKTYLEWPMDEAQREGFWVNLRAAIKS
T4 sequence (O60602 21-858): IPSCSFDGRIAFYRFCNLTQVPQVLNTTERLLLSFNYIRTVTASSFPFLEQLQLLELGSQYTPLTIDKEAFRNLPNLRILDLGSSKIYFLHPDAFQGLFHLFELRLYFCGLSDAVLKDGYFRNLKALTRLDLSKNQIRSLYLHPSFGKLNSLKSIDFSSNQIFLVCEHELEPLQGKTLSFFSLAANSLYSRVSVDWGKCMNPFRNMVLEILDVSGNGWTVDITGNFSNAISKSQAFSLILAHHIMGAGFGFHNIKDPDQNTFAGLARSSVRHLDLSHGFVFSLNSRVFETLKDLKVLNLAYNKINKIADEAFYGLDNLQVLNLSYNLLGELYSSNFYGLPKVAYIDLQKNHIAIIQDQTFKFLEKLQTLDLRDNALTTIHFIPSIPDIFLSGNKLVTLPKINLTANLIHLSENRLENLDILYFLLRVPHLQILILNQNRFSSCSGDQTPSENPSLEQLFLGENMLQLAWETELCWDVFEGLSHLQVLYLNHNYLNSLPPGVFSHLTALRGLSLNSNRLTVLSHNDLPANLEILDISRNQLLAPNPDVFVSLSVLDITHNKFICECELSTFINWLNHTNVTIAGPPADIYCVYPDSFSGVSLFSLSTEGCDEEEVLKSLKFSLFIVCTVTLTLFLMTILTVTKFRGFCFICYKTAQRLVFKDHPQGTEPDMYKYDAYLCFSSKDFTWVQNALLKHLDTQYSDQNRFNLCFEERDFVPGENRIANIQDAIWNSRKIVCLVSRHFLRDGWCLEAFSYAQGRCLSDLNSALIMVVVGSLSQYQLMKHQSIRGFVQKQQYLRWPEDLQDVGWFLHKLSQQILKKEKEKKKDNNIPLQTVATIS

OC[C@H]1O[C@@H](n2cnc3c(O)ncnc32)[C@H](O)[C@@H]1O [Inosine]
do not exhibit a stimulatory effect: stimulatory effect on human TLR3 (NF-κB activation) [1] | stimulatory effect on human TLR8 (NF-κB activation) [2] | stimulatory effect on human TLR2 (NF-κB activation) [3] | stimulatory effect on human TLR5 (NF-κB activation) [4]

O=c1[nH]cnc2c([C@@H]3N[C@H](CO)[C@@H](O)[C@H]3O)c[nH]c12 [NTR001, 7-[(2S,3S,4R,5R)-3,4-dihydroxy-5-(hydroxymethyl)-2-pyrrolidinyl]-1,5-dihydro-4H-pyrrolo[3,2-d]pyrimidin-4-one]
do not exhibit a stimulatory effect: stimulatory effect on human TLR3 (NF-κB activation) [1] | stimulatory effect on human TLR8 (NF-κB activation) [2] | stimulatory effect on human TLR2 (NF-κB activation) [3] | stimulatory effect on human TLR5 (NF-κB activation) [4]
